Measured values taken from US20070111267A1, “Method of determining efficacy of anticancer drug and determination kit therefor” (priority 2003, published 2007).
Where a name gives a salt, the structure may show the parent alone.

What was measured:
CMK = assay: Sensitivity of cell line to the tyrosine kinase inhibitor; format: cell-based, human
Text: CMK: human megakaryocytic leukemia cell line. No expression of Bcr-Abl protein. Resistant to Bcr-Abl inhibitor.
(§1) One to two μM STI571 was directly added to a cell culture.

MOLM1 = assay: as above; format: cell-based, human
Text: MOLM1: human CML cell line. Expression of Bcr-Abl protein. Sensitive to Bcr-Abl inhibitor.
as §1

KYO-1 = assay: as above; format: cell-based, human; details: KYO-1 cell line
Text: KYO-1: human CML cell line. Expression of Bcr-Abl protein. Resistant to Bcr-Abl inhibitor. See Leukemia Research 9: 921-926, (1985).
as §1

K562 = assay: as above; format: cell-based, human
Text: K562: human CML cell line. Expression of Bcr-Abl protein. Sensitive to Bcr-Abl inhibitor.
as §1

HEL = assay: as above; format: cell-based, human
Text: HEL: human erythrocytic leukemia cell line. No expression of Bcr-Abl protein. Resistant to Bcr-Abl inhibitor.
as §1

MEG = assay: as above; format: cell-based, human
Text: MEG: human CML cell line. Expression of Bcr-Abl protein. Sensitive to Bcr-Abl inhibitor.
as §1

p27 protein = details: reported in Tomoda K et al. J Biol Chem. 2002; cited from earlier work

Cc1ccc(NC(=O)c2ccc(CN3CCN(C)CC3)cc2)cc1Nc1nccc(-c2cccnc2)n1 [tyrosine kinase inhibitor, imatinib mesylate]
Sensitivity to the tyrosine kinase inhibitor (CMK): resistant | Sensitivity to the tyrosine kinase inhibitor (MOLM1): sensitive | Sensitivity to the tyrosine kinase inhibitor (KYO-1): resistant | Sensitivity to the tyrosine kinase inhibitor (K562): sensitive | Sensitivity to the tyrosine kinase inhibitor (HEL): resistant | Sensitivity to the tyrosine kinase inhibitor (MEG): sensitive

CCC(=C/[C@H](C)C/C=C/C(C)=C/[C@@H](C)C(=O)[C@@H](C)[C@H](O)[C@@H](C)C/C(C)=C/C(=O)O)/C=C/[C@@H]1OC(=O)C=C[C@@H]1C [leptomycin B]
degradation of p27 protein by the Jab1 small complex (p27 protein): inhibited
